Reference: article PMC7747594, “Protease-activated receptor-2 ligands reveal orthosteric and allosteric mechanisms of receptor inhibition” (Communications Biology, 2020)
Several values for one entry are separate records, joined by “and”; a condition that tells them apart may be missing. Identical values can stand only once. Entries after “also recorded” stand apart in the source; their conditions may differ.

Assays:
Assay type in all cases: cell-based
hPAR2 [1] = target: T1, hPAR2 (Homo sapiens, UniProt P55085); assay: Ca^2+ flux assay (FLIPR), inhibition of SLIGRL-NH2 activation in 1321N1-hPAR2 cells
T1 sequence (P55085 26-397): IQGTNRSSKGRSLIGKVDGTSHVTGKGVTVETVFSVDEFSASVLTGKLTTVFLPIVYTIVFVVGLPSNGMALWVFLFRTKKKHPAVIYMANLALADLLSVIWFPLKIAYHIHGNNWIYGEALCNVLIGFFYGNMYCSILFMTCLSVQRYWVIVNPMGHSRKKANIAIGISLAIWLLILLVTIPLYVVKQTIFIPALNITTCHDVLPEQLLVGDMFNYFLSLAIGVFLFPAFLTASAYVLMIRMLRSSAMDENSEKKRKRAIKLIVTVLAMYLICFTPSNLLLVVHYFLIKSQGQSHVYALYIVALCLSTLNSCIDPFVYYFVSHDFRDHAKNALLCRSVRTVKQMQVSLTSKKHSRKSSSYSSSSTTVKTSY
Experimental: (§1) Cells were loaded with Fluo-8 NW calcium dye (AAT Bioquest) for 30 min at 37 °C before compounds in Hank’s balanced salt solution (HBSS, ThermoFisher Scientific) with 20 mM HEPES (ThermoFisher Scientific), 0.1% bovine serum albumin (BSA, Sigma) and 0.5% DMSO were added and simultaneously evaluated for changes in intracellular [Ca^2+] using FLIPR TETRA (Molecular Devices) to detect agonism. For each concentration, the difference between the maximum peak Ca^2+ response and baseline response is reported. […] Antagonism experiments were also carried out on 1321N1-PAR2[WT], 1321N1-PAR2[F154A], and 1321N1-PAR2[G157C] as described. Experiments with trypsin in 1321N1-hPAR2 cells were performed in the presence of 1 µM Vorapaxar (Chemtronica) to remove any interference of PAR1 activity. […] Antagonism experiments for CHO-hPAR2 and HT-29 cells were performed in 96-well plates at 30,000 cells/well. Cells were loaded with Fluo-3 AM calcium dye (Sigma-Aldrich) for 60 min at 37 °C in HBSS with 1% FBS, 0.2% pluronic acid, 20 mM HEPES and 2.5 mM probenecid prior to the addition of antagonist. The antagonist was pre-incubated for 60 min at 37 °C followed by the addition of bovine trypsin (30 nM) at EC80. Intracellular [Ca^2+] flux was measured using FLIPR TETRA (Molecular Devices) and the difference between the maximum peak Ca^2+ response and baseline response is reported.
(§2) Binding data were analysed using the One site – Fit Ki model in GraphPad Prism 8 (GraphPad Software) to determine binding affinity. Pharmacology in vitro potency data was analysed with a 4-parameter logistic fit using the equation y = Bottom + (Top − Bottom)/[…] where y is the response, x is the 10-logarithm of the drug concentration, Bottom is no response and Top is full response in GraphPad Prism 8 or Genedata Screener (Genedata). pEC50 and pIC50 data are presented as mean ± standard error of the mean (s.e.m.) derived from the number of independent experiments stated. Schild slope analysis was calculated using Graphpad Prism 8 Gaddum/Schild EC50 global fitting (shared model parameters between all data sets) competitive model. […] Schild slope quantifies the shifts in agonist response in the presence of antagonist, a Schild slope of 1 indicates the antagonist is competitive and extra-sum-of-squares F-test (p < 0.05) was used to compare the calculated Schild slope against a hypothetical Schild slope of 1. […] The relative activity was calculated using (EmaxEC50’)/(Emax’EC50) with the Hill slope help constant at 1. EC50’ and Emax’ denote the EC50 and Emax in the absence of allosteric modulator, while EC50 and Emax denote those measured in the presence of allosteric modulator. When the Hill slope = 1, the relative activity plot approaches an asymptote corresponding to the estimate of the γ value.

hPAR2 [2] = target: T1, hPAR2; assay: pERK1/2 HTRF assay, inhibition of SLIGRL-NH2 in U2OS-hPAR2 cells
Experimental: Phosphorylation of ERK1/2 was measured in U2OS-hPAR2 cells using Phospho-ERK1/2 (Thr202/Tyr204) assay kit (64ERKPEH Cisbio) and the 2 plate manufacturer’s protocol with the following modifications. Cells were seeded in McCoy’s 5A media containing 10% FBS at 15,000 cells per well in 384-well plates and incubated overnight at 37 °C, 5% CO2. Antagonist compounds (30 µM–1 nM) were incubated with the cells for 30 min prior to the addition of agonist SLIGRL-NH2 (10 µM) at EC80 and further incubation for 5 min at 37 °C. The supernatant was removed from the wells and lysis buffer was added to the cells and incubated with shaking at room temperature for 30 min. The cell lysate was transferred into a small-volume 384-well plate containing detection antibodies and incubated for 4 h at room temperature in the dark. Plates were read for HTRF signal on PHERAstar (BMG LabTech). In addition, phosphorylation of ERK1/2 was measured in CHO-hPAR2 using AlphaLISA SureFire Ultra pERK1/2 (Thr202/Tyr204) (Perkin Elmer). Cells were seeded at a density of 2000 cells per well in a 384-well proxiplate and incubated overnight. […] After incubation, cell lysis buffer was added with shaking for 30 min. Antibodies and beads were added and incubated for 4 h at room temperature. AlphaLISA signal was measured using a PHERAstar (BMG LabTech).
as §2

hPAR2 [3] = target: T1, hPAR2; assay: β-arrestin-2 recruitment assay, inhibition of SLIGRL-NH2 in U2OS-hPAR2 cells; details: SLIGRL-NH2, U2OS-hPAR2; mean ± s.e.m.; read-out: β-arrestin (hPAR2) pIC50 (converted)
Experimental: β‐Arrestin-2 recruitment was measured in U2OS-hPAR2 cells using the DiscoverX assay kit, according to the manufacturer’s instructions. Briefly, cells were seeded in McCoy’s 5A media containing 10% FBS at 4000 cells per well in 384-well plates and incubated overnight at 37 °C, 5% CO2. Antagonist compounds (30 µM–1 nM) were incubated with the cells for 30 min prior to the addition of agonist SLIGRL-NH2 (10 µM) at EC80 and further incubation for 90 min at 37 °C. Working detection solution (12 µl) was then added to each well, incubated at room temperature in the dark for 60 min and the chemiluminescence signal read on the EnVision microplate reader (Perkin Elmer).
as §2

hPAR2 [4] = target: T1, hPAR2; assay: Ca^2+ flux assay, inhibition of trypsin activation in 1321N1-hPAR2 cells (with 1 µM Vorapaxar); details: for IC50: trypsin
hPAR2 [5] = target: T1, hPAR2; assay: Ca^2+ flux assay, agonist mode, 1321N1-hPAR2 cells; design: Ca^2+ mobilisation tested as agonist, Fig 1c source data / Ca2+ response (Fig 2c), individual replicate values: unit not given here; details: for Ca^2+ mobilisation tested as agonist, Fig 1c source data: log[compound], individual data points
Experimental: as §1, §2

SMILES: C[C@@H](C1CCCCC1)n1c(-c2cc3c(cc2Br)OCO3)nc2cc(C(=O)Nc3ccc(C#N)cc3)ccc21 [AZ3451]
- IC50 (hPAR2 [1]; Ca^2+ assay, earlier manuscript version quoted by reviewer, read-out: IC50): 2.8 nM
- remaining activity at 0.001319 µM (hPAR2 [1]; log[compound], M -8.87976, individual data points, read-out: SLIGRL-NH2 Ca^2+ mobilisation, antagonist response, Fig 1c source data): 77.4%
- IC50 (hPAR2 [2]; SLIGRL-NH2, U2OS-hPAR2, mean ± s.e.m., read-out: pERK1/2 (hPAR2) pIC50 (converted)): 363 nM
- remaining activity at 0.37 µM (hPAR2 [2]; log[compound], M -6.4318, individual data points, read-out: SLIGRL-NH2 phosphorylation of ERK1/2, antagonist response, Fig 1e source data): 45.7%
- IC50 (hPAR2 [3]): 87.1 nM
- shape of inhibition of trypsin-induced Ca^2+ mobilisation (hPAR2 [4]; 1321N1-hPAR2 cells, 1 µM Vorapaxar): biphasic inhibition curves
- remaining activity at 0.03 µM (hPAR2 [4]; log[compound], M -7.52288, individual data points, read-out: trypsin Ca^2+ mobilisation, antagonist response, Fig 1g source data): 71.7%
- remaining activity at 0.01 µM (hPAR2 [4]; log[compound], M -8, individual data points, read-out: trypsin Ca^2+ mobilisation, antagonist response, Fig 1g source data): 68%
- remaining activity at 0.003 µM (hPAR2 [4]; log[compound], M -8.52288, individual data points, read-out: trypsin Ca^2+ mobilisation, antagonist response, Fig 1g source data): 73%
- remaining activity at 0.001 µM (hPAR2 [4]; log[compound], M -9, individual data points, read-out: trypsin Ca^2+ mobilisation, antagonist response, Fig 1g source data): 78.8%
- remaining activity at 0.0003 µM (hPAR2 [4]; log[compound], M -9.52288, individual data points, read-out: trypsin Ca^2+ mobilisation, antagonist response, Fig 1g source data): 82.9%
- remaining activity at 0.0001 µM (hPAR2 [4]; log[compound], M -10, individual data points, read-out: trypsin Ca^2+ mobilisation, antagonist response, Fig 1g source data): 99.7%
- IC50 (hPAR2 [4]; read-out: inhibition of trypsin activation of PAR2 signalling, biphasic, pIC50 first phase (converted)): 3.16 nM
- IC50 (hPAR2 [4]; read-out: inhibition of trypsin activation of PAR2 signalling, biphasic, pIC50 second phase (converted)): 1000 nM
- Ca^2+ mobilisation tested as agonist, Fig 1c source data (hPAR2 [5]; M -4.38018): 2.619 and -1.693 and 12.8149 and 8.844 and 5.039
- Ca^2+ mobilisation tested as agonist, Fig 1c source data (hPAR2 [5]; M -4.88008): 6.334 and 5.142 and -5.002 and 2.343 and 2.365
- Ca^2+ mobilisation tested as agonist, Fig 1c source data (hPAR2 [5]; M -5.38018): 7.004 and 3.992 and 6.097 and 3.93 and 1.406
- Ca^2+ mobilisation tested as agonist, Fig 1c source data (hPAR2 [5]; M -5.88008): 0.5481 and 1.501 and 3.614 and 4.082 and 2.434
- Ca^2+ mobilisation tested as agonist, Fig 1c source data (hPAR2 [5]; M -6.38007): 1.705 and 0.03194 and -3.0303 and 2.1164 and 2.6397
- Ca^2+ mobilisation tested as agonist, Fig 1c source data (hPAR2 [5]; M -6.88008): 1.523 and 0.2236 and 5.2939 and 1.134 and 0.3771
- Ca^2+ mobilisation tested as agonist, Fig 1c source data (hPAR2 [5]; M -7.37997): 1.949 and 4.9505 and 1.716 and -0.3779 and 3.12
- Ca^2+ mobilisation tested as agonist, Fig 1c source data (hPAR2 [5]; M -7.88008): 3.289 and 0.09582 and 3.3954 and 1.814 and 4.697
- Ca^2+ mobilisation tested as agonist, Fig 1c source data (hPAR2 [5]; M -8.37986): 0.7917 and -0.8623 and -2.957 and 0.7559 and 2.503
- Ca^2+ mobilisation tested as agonist, Fig 1c source data (hPAR2 [5]; M -8.87976): 1.34 and -1.757 and 1.643 and 4.989 and 1.8855
- agonist activity (tested as agonists) (hPAR2 [5]; Ca^2+ assay and other signalling assays): no effect; also recorded: no agonist activity
